Measurements published in US20080274892A1, “Novel Haloalkylsulfonanilide Derivative, Herbicide, and Method of Use Thereof” (priority 2005, published 2008).

How the values were obtained:
[1] = test system: paddy rice plant (cultivar: Nihonbare); experiment: Test Example 3: phytotoxicity test for transplanted paddy rice plant; type: in vivo; conditions: dosage 1000 g/ha; transplanted rice, treated 5 days after transplantation; 21 days after treatment
Procedure, shortened: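 Clay loam soil was placed in a 75 cm^2 plastic pot and flooded to a water depth of 5 cm. Two Nihonbare paddy rice plants at the two-leaf stage were transplanted 1 cm deep and grown in a hot house. After treatment, pots stayed in the hot house for 21 days, and phytotoxicity was then graded against an untreated control.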

[2] = test system: bulrush; experiment: Test Example 1: herbicidal efficacy on rice paddy weeds pre-emergence; type: in vivo, Scirpus juncoides; conditions: dosage 1000 g/ha, 21 days
[3] = test system: bulrush; experiment: Test Example 4: low dosage test for rice paddy weeds; type: in vivo, Scirpus juncoides; conditions: 300 g/ha as an active ingredient; plants treated at the one leaf stage; 21 days after treatment; vs untreated control
Procedure, shortened: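 Bulrush sown in clay loam pots, flooded to 5 cm water in a hot house, treated at the one-leaf stage with formulated compound at 300 g/ha. Efficacy scored 0–4 against untreated control 21 days after treatment (4 = 90–100%, 0 = 0% inhibition).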

[4] = test system: false pimpernel; experiment: Test Example 2: herbicidal efficacy on rice paddy weeds post-emergence; type: in vivo, Lindernia pyxidaria; conditions: dosage 1000 g/ha; post-emergence, one leaf stage; 21 days after treatment
[5] = test system: bulrush; experiment: as above; type: in vivo, Scirpus juncoides; conditions: dosage 1000 g/ha; post-emergence, one leaf stage; 21 days after treatment
[6] = test system: barnyard glass; experiment: as above; type: in vivo, Echinochloa crus-galli; conditions: dosage 1000 g/ha; post-emergence, one leaf stage; 21 days after treatment
Procedure, shortened: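 Plastic pots of 75 cm^2 were filled with clay loam soil and sown with barnyard glass and bulrush seeds, then topped with 75 cm^3 soil containing false pimpernel seeds. The pots were flooded to 5 cm water depth and held in a hot house. Twenty-one days after treatment, herbicidal efficacy was graded against an untreated control.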

[7] = test system: transplanted paddy rice plant and Bulrush; experiment: Test Example 5: selectivity between transplanted paddy rice plant and weeds; type: in vivo; conditions: (highest dosage with no phytotoxicity to paddy rice)/(lowest dosage with effective level 4 on Bulrush); rice 3000-100 g/ha, Bulrush 300-10 g/ha; 21 days
Procedure, shortened: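 Transplanted paddy rice was treated at 3000, 1000, 300 and 100 g/ha active ingredient for phytotoxicity, and post-emergence bulrush at 300, 100, 30 and 10 g/ha. Plants were kept in a hothouse for 21 days. Growth inhibition versus untreated control was scored 0–4 (0%, 1–39%, 40–69%, 70–89%, 90–100%).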

[8] = test system: false pimpernel; experiment: Test Example 1: herbicidal efficacy on rice paddy weeds pre-emergence; type: in vivo, Lindernia pyxidaria; conditions: dosage 1000 g/ha, 21 days

| SMILES | Phytotoxicity to paddy rice [1] | Bulrush pre (herbicidal efficacy grade) [2] | Herbicide effect to Bulrush [3] | False pimpernel post (herbicidal efficacy grade) [4] | Bulrush post (herbicidal efficacy grade) [5] | Burnyard grass post (herbicidal efficacy grade) [6] | Selective Index [7] | False pimpernel pre (herbicidal efficacy grade) [8] |
| --- | --- | --- | --- | --- | --- | --- | --- | --- |
| CC[C@@H]1CN(Cc2ccccc2N(C(=O)OCC(C)C)S(=O)(=O)C(F)(F)F)C(=O)O1 [1-58] | 1 (1%-39% of herbicidal efficacy or phytotoxicity) | 4 (90%-100% of herbicidal efficacy or phytotoxicity) | 4 (90%-100% of herbicidal efficacy or phytotoxicity) | 4 (90%-100% of herbicidal efficacy or phytotoxicity) | 4 (90%-100% of herbicidal efficacy or phytotoxicity) | 4 (90%-100% of herbicidal efficacy or phytotoxicity) | ≧30 | 4 (90%-100% of herbicidal efficacy or phytotoxicity) |
| CCC1(CC)CN(Cc2ccccc2NS(=O)(=O)C(F)(F)F)C(=O)O1 [1-61] | 1 (1%-39% of herbicidal efficacy or phytotoxicity) | 4 (90%-100% of herbicidal efficacy or phytotoxicity) | 4 (90%-100% of herbicidal efficacy or phytotoxicity) | 4 (90%-100% of herbicidal efficacy or phytotoxicity) | 4 (90%-100% of herbicidal efficacy or phytotoxicity) | 4 (90%-100% of herbicidal efficacy or phytotoxicity) | 3 | 4 (90%-100% of herbicidal efficacy or phytotoxicity) |
| CCC1(CC)CN(Cc2ccccc2N(C(=O)OCC(C)C)S(=O)(=O)C(F)(F)F)C(=O)O1 [1-62] | 1 (1%-39% of herbicidal efficacy or phytotoxicity) | 4 (90%-100% of herbicidal efficacy or phytotoxicity) | 4 (90%-100% of herbicidal efficacy or phytotoxicity) | 4 (90%-100% of herbicidal efficacy or phytotoxicity) | 4 (90%-100% of herbicidal efficacy or phytotoxicity) | 4 (90%-100% of herbicidal efficacy or phytotoxicity) | 10 | 4 (90%-100% of herbicidal efficacy or phytotoxicity) |
| CCCCOC(=O)N(c1ccccc1CN1CC(C)(C)OC1=O)S(=O)(=O)C(F)(F)F [1-63] | 2 (40%-69% of herbicidal efficacy or phytotoxicity) | 4 (90%-100% of herbicidal efficacy or phytotoxicity) | 4 (90%-100% of herbicidal efficacy or phytotoxicity) | 4 (90%-100% of herbicidal efficacy or phytotoxicity) | 4 (90%-100% of herbicidal efficacy or phytotoxicity) | 4 (90%-100% of herbicidal efficacy or phytotoxicity) | ≧30 | 4 (90%-100% of herbicidal efficacy or phytotoxicity) |
| COC(=O)N(c1ccccc1CN1CC(C)(C)OC1=O)S(=O)(=O)C(F)(F)F [1-64] | 2 (40%-69% of herbicidal efficacy or phytotoxicity) | 4 (90%-100% of herbicidal efficacy or phytotoxicity) | 4 (90%-100% of herbicidal efficacy or phytotoxicity) | 4 (90%-100% of herbicidal efficacy or phytotoxicity) | 4 (90%-100% of herbicidal efficacy or phytotoxicity) | 4 (90%-100% of herbicidal efficacy or phytotoxicity) | ≧30 | 4 (90%-100% of herbicidal efficacy or phytotoxicity) |
| CC1(C)CN(Cc2ccccc2N(C(=O)OCC(Cl)(Cl)Cl)S(=O)(=O)C(F)(F)F)C(=O)O1 [1-65] | 1 (1%-39% of herbicidal efficacy or phytotoxicity) | 4 (90%-100% of herbicidal efficacy or phytotoxicity) | 4 (90%-100% of herbicidal efficacy or phytotoxicity) | 4 (90%-100% of herbicidal efficacy or phytotoxicity) | 4 (90%-100% of herbicidal efficacy or phytotoxicity) | 4 (90%-100% of herbicidal efficacy or phytotoxicity) | 10 | 4 (90%-100% of herbicidal efficacy or phytotoxicity) |
| CC(C)(C)COC(=O)N(c1ccccc1CN1CC(C)(C)OC1=O)S(=O)(=O)C(F)(F)F [1-66] | 1 (1%-39% of herbicidal efficacy or phytotoxicity) | 4 (90%-100% of herbicidal efficacy or phytotoxicity) | 4 (90%-100% of herbicidal efficacy or phytotoxicity) | 4 (90%-100% of herbicidal efficacy or phytotoxicity) | 4 (90%-100% of herbicidal efficacy or phytotoxicity) | 4 (90%-100% of herbicidal efficacy or phytotoxicity) | ≧30 | 4 (90%-100% of herbicidal efficacy or phytotoxicity) |
| CCC(C)COC(=O)N(c1ccccc1CN1CC(C)(C)OC1=O)S(=O)(=O)C(F)(F)F (stereo not drawn) [1-67] | 1 (1%-39% of herbicidal efficacy or phytotoxicity) | 4 (90%-100% of herbicidal efficacy or phytotoxicity) | 4 (90%-100% of herbicidal efficacy or phytotoxicity) | 4 (90%-100% of herbicidal efficacy or phytotoxicity) | 4 (90%-100% of herbicidal efficacy or phytotoxicity) | 4 (90%-100% of herbicidal efficacy or phytotoxicity) | ≧30 | 4 (90%-100% of herbicidal efficacy or phytotoxicity) |
| CCCCC(CC)COC(=O)N(c1ccccc1CN1CC(C)(C)OC1=O)S(=O)(=O)C(F)(F)F (stereo not drawn) [1-68] | 1 (1%-39% of herbicidal efficacy or phytotoxicity) | 4 (90%-100% of herbicidal efficacy or phytotoxicity) | 4 (90%-100% of herbicidal efficacy or phytotoxicity) | 4 (90%-100% of herbicidal efficacy or phytotoxicity) | 4 (90%-100% of herbicidal efficacy or phytotoxicity) | 4 (90%-100% of herbicidal efficacy or phytotoxicity) | 10 | 4 (90%-100% of herbicidal efficacy or phytotoxicity) |
| CC1(C2CC2)CN(Cc2ccccc2NS(=O)(=O)C(F)(F)F)C(=O)O1 (stereo not drawn) [1-71] | 1 (1%-39% of herbicidal efficacy or phytotoxicity) | 4 (90%-100% of herbicidal efficacy or phytotoxicity) | 4 (90%-100% of herbicidal efficacy or phytotoxicity) | 4 (90%-100% of herbicidal efficacy or phytotoxicity) | 4 (90%-100% of herbicidal efficacy or phytotoxicity) | 4 (90%-100% of herbicidal efficacy or phytotoxicity) | 10 | 4 (90%-100% of herbicidal efficacy or phytotoxicity) |
| CC(C)COC(=O)N(c1ccccc1CN1CC(C)(C2CC2)OC1=O)S(=O)(=O)C(F)(F)F (stereo not drawn) [1-72] | 1 (1%-39% of herbicidal efficacy or phytotoxicity) | 4 (90%-100% of herbicidal efficacy or phytotoxicity) | 4 (90%-100% of herbicidal efficacy or phytotoxicity) | 4 (90%-100% of herbicidal efficacy or phytotoxicity) | 4 (90%-100% of herbicidal efficacy or phytotoxicity) | 4 (90%-100% of herbicidal efficacy or phytotoxicity) | 10 | 4 (90%-100% of herbicidal efficacy or phytotoxicity) |
| CCCOC(=O)N(c1ccccc1CN1CC(C)(C)OC1=O)S(=O)(=O)C(F)(F)F [1-75] | 1 (1%-39% of herbicidal efficacy or phytotoxicity) | 4 (90%-100% of herbicidal efficacy or phytotoxicity) | 4 (90%-100% of herbicidal efficacy or phytotoxicity) | 4 (90%-100% of herbicidal efficacy or phytotoxicity) | 4 (90%-100% of herbicidal efficacy or phytotoxicity) | 4 (90%-100% of herbicidal efficacy or phytotoxicity) | ≧30 | 4 (90%-100% of herbicidal efficacy or phytotoxicity) |
